From US20190269626A1, “Hair Protection Effect of Vanillyl Alkyl Ether and the Application thereof” (CORUM INC., priority 2018, published 2019)

How the values were obtained:
[1] = tested on: PMA-induced inflammatory cytokines (IL-6 and IL-8) in HFDPC (human follicle dermal papilla cells); assay: PMA-induced inflammatory cytokines (IL-6 and IL-8) in HFDPC; type: cell-based
Description: Still another example of this embodiment is application of VBE on decreasing PMA-induced inflammation (IL-6 and IL-8). […] Capsaicin, nonivamide, and minoxidil are effectless to PMA-induced IL-6, and IL-8.

[2] = tested on: LPS-induced inflammatory cytokines (IL-6 and IL-8) in macrophages; assay: LPS-induced inflammatory cytokines (IL-6 and IL-8) in macrophages; type: cell-based
Description: One preferred example of this embodiment is application of VBE on decreasing LPS-induced inflammation (IL-6, and IL-8).

ROS generation in HFDPC = assay: ROS generation with/without pollutant in HFDPC; type: cell-based, human; conditions: for ROS generation, pollutant-stimulated condition: pollutant-triggered; for ROS generation, basal condition: without pollutant (basal)
Description: FIG. 4A to FIG. 4B respectively presents with/without pollutant-triggered ROS generation on HFDPC by VBE, and CAP (capsaicin). […] Hair follicle is a mini-organ of the skin which contains dermal papilla cells (DPC) in the bottom site surrounded with matrix cells (keratinocytes) and melanocytes. DPC play an important role to regulate matrix cell proliferation, differentiation and apoptosis during hair cycles, and matrix cells are responsible for forming the major structures of the hair shaft. In the above examples, we established an in vitro model to investigate hair loss mechanism caused by air pollution. Based on our data, SRM1649b (urban dust) PM2.5 is able to activate AhR pathway, enhance ROS generation, up-regulate gene expression of alopecia-related factors (TGF-β2, TNF-α and PTGS2) and stimulate inflammatory cytokines (IL-6, IL-8, and GM-CSF) in human hair follicle dermal papilla cells. […] The mechanism of air pollution induced hair loss is illustrated in FIG. 5.

5-alpha reductase = 5-alpha reductase activity: DHT/Testosterone ratio in NHEK with [14C] testosterone; type: cell-based, human
[3] = tested on: hair loss related genes expression (CYP1B1, TGF-β2, and TNF-α) in HFDPC; assay: Pollutant-induced hair loss related genes expression in HFDPC; type: cell-based, human
Description: Still another example of this embodiment is application of VBE on decreasing pollutant-induced hair loss related genes expression (CYP1B1, TGF-β2, and TNF-α) on HFDPC. FIG. 3 presents pollutant-induced hair loss related genes expression (CYP1B1, TGF-β2, and TNF-α) by VBE, and DMF. DMF is 3′,4′-dimethoxyflavone, and is a AhR (aryl hydrocarbon receptor) antagonist. Pollutants usually generate damages though activating the transcription factor AhR.
(§1) FIG. 5 presents how to improve hair loss of human hair follicle dermal papilla cells with VBE according to the above examples. Hair follicle is a mini-organ of the skin which contains dermal papilla cells (DPC) in the bottom site surrounded with matrix cells (keratinocytes) and melanocytes. DPC play an important role to regulate matrix cell proliferation, differentiation and apoptosis during hair cycles, and matrix cells are responsible for forming the major structures of the hair shaft. In the above examples, we established an in vitro model to investigate hair loss mechanism caused by air pollution. Based on our data, SRM1649b (urban dust) PM2.5 is able to activate AhR pathway, enhance ROS generation, up-regulate gene expression of alopecia-related factors (TGF-β2, TNF-α and PTGS2) and stimulate inflammatory cytokines (IL-6, IL-8, and GM-CSF) in human hair follicle dermal papilla cells. […] The mechanism of air pollution induced hair loss is illustrated in FIG. 5.

[4] = tested on: anagen hairs and telogen hairs; assay: Clinical evaluation of VBE versus placebo, phototrichogram hair growth cycle analysis; type: in vivo, human; conditions: topical once a day for 84 days, half-head versus placebo, subjects with androgenetic alopecia
Protocol: Another example of this embodiment is clinical evaluation of the effect of VBE versus placebo in the male and female subjects after repeated application of 84 days through. The clinical test is finished by Spincontrol, France. The evaluation was performed using phototrichogram for hair growth cycle analysis. 11 healthy subjects from 25 to 49 years with a chronic hair loss/alopecia of androgenetic origin were selected for this study.

[5] = tested on: AhR pathway in human hair follicle dermal papilla cells; assay: Air pollution (SRM1649b urban dust PM2.5) in vitro hair loss model in HFDPC: AhR activity and GM-CSF; type: cell-based
Description: as §1, with “Hair” for “FIG. 5 presents how to improve hair loss of human hair follicle dermal papilla cells with VBE according to the above examples. Hair”

## COc1cc(CNC(=O)CCCC/C=C/C(C)C)ccc1O [Capsaicin]
[1]
  PMA-induced IL-6: no effect
  PMA-induced IL-8: no effect
[2]
  LPS-induced IL-6: decreased
  LPS-induced IL-8: decreased
ROS generation in HFDPC
  ROS generation, pollutant-stimulated condition: no effect
  ROS generation, basal condition: no effect

## CCCCCCCCC(=O)NCc1ccc(O)c(OC)c1 [Nonivamide]
[1]
  PMA-induced IL-6: no effect
  PMA-induced IL-8: no effect
[2]
  LPS-induced IL-6: decreased
  LPS-induced IL-8: decreased

## CC(C)(C)NC(=O)[C@H]1CC[C@H]2[C@@H]3CC[C@H]4NC(=O)C=C[C@]4(C)[C@H]3CC[C@]12C [finasteride]
5-alpha reductase; finasteride reference
  DHT/testosterone ratio compared to the control condition: 1%

## COc1ccc(-c2cc(=O)c3ccccc3o2)cc1OC [DMF, 3′,4′-dimethoxyflavone]
[3]
  pollutant-induced CYP1B1 gene expression: reducing
  pollutant-induced TGF-β2 gene expression: reducing
  pollutant-induced TNF-α gene expression: reducing

## CCCCOCc1ccc(O)c(OC)c1 [VBE, vanillyl butyl ether]
[3]
  pollutant-induced CYP1B1 gene expression: reduce
  pollutant-induced TGF-β2 gene expression: reduce
  pollutant-induced TNF-α gene expression: reduce
[1]
  PMA-induced IL-6: decrease
  PMA-induced IL-8: decrease
5-alpha reductase; 50 μg/ml
  DHT/Testosterone ratio compared to control: 64%
5-alpha reductase; 1.25 to 50 μg/ml
  DHT/Testosterone ratio, dose dependence: decreases DHT/Testosterone ratio in a dose dependent manner
[4]
  Anagen (growing) hair: increased
  Telogen (resting or shedding) hair: reduced
  enhancement of ratio of Anagen to Telogen: 6%
[2]
  LPS-induced IL-6: decrease
  LPS-induced IL-8: decrease
[5]
  AhR activity: attenuating
  GM-CSF production: attenuating
ROS generation in HFDPC
  ROS generation, pollutant-stimulated condition: decreased
  ROS generation, basal condition: decreased

## Nc1cc(N2CCCCC2)nc(N)[n+]1[O-] [Minoxidil]
[1]
  PMA-induced IL-6: no effect
  PMA-induced IL-8: no effect
